From patent publication US20240350447A1, “DELIVERY METHODS FOR TREATING BRAIN AND CENTRAL NERVOUS SYSTEM DISEASES” (JENIVISION INC., priority 2021, published 2024)

Assays:
[1] = Baseline endogenous levels of DHA, DHA-EE and JV-DE1; type: in vivo; settings: undosed Bama minipigs
Description: Endogenous levels were measured in the plasma, cerebrospinal fluid, ocular tissues (retina, optic nerve, ocular muscles), and brain. The endogenous levels DHA are not attributable to NIODP administration of DHA, DHA-EE, or JV-DE1. The baseline data collected in Table 4 was taken from the same lot of pigs, from the same vendor, as the information collected in Tables 5-7.

[2] = DHA-EE distribution after single periorbital skin administration; type: in vivo, Bama minipigs
Description: In this example, 6174 μg/eye of docohexaenoic acid ethyl ester (DHA-EE) was applied to the periorbital skin of a left eye of a Bama minipig. […] 21099.7 ng/g of tissue and 21336.3 ng/g of tissue of DHA was measured in the left and right halves of the brain, respectively. […] The average amount of DHA present in the brain 3 hours post-dosage was 21218 ng/g.
Given that the average Bama pig brain weighs around 60 g, the amount of DHA delivered to the brain can be estimated to be 27,600 ng or 27.6 μg. Therefore, the percentage of administered dose=27.6 μg delivered to brain/6174 μg dosed=0.45% of DHA topically administered to the pig via periorbital administration was delivered to the brain. As a comparison, only about 0.025% of DHA that is orally administered is delivered to the brain or CNS.

[3] = 0 h, DHA-EE 6174 μg to periorbital skin of left eye
[4] = 1 h, DHA-EE 6174 μg to periorbital skin of left eye
[5] = 3 h, DHA-EE 6174 μg to periorbital skin of left eye

SMILES: CC/C=C\C/C=C\C/C=C\C/C=C\C/C=C\C/C=C\CCC(=O)OCC [DHA-EE, Docosahexaenoic acid ethyl ester]
- Baseline endogenous concentration in brain [1]: BLQ
- Baseline endogenous concentration in cerebrospinal fluid [1]: BLQ
- Baseline endogenous concentration in eye tissue homogenate including (Retina, optic nerve, ocular muscle) [1]: BLQ
- Baseline endogenous concentration in plasma [1]: BLQ
- Drug Concentration in Plasma, analyte DHA [2, 3]: BLQ
- Drug Concentration in Plasma, analyte DHA-EE [2, 3]: BLQ
- Drug Concentration in Plasma, analyte DHA [2, 4]: BLQ
- Drug Concentration in Plasma, analyte DHA-EE [2, 4]: BLQ
- Percentage of administered dose delivered to the brain (as DHA) ([2]; 3 h, DHA-EE 6174 μg periorbital, whole brain estimate): 0.45%
- Analyte DHA, % of administered dose: Cerebrospinal fluid [2, 5]: 0%
- Analyte DHA, % of administered dose: brain-left [2, 5]: 0.332%
- Analyte DHA, % of administered dose: brain-right [2, 5]: 0.562%
- Analyte DHA, % of administered dose: inferior rectus muscle-left [2, 5]: 0.008%
- Analyte DHA, % of administered dose: inferior rectus muscle-right [2, 5]: 0.009%
- Analyte DHA, % of administered dose: lateral rectus muscle-left [2, 5]: 0.004%
- Analyte DHA, % of administered dose: lateral rectus muscle-right [2, 5]: 0.010%
- Analyte DHA, % of administered dose: medial rectus muscle-left [2, 5]: 0.020%
- Analyte DHA, % of administered dose: medial rectus muscle-right [2, 5]: 0.016%
- Analyte DHA, % of administered dose: optic nerve-left [2, 5]: 0.011%
- Analyte DHA, % of administered dose: optic nerve-right [2, 5]: 0.031%
- Analyte DHA, % of administered dose: retina-left [2, 5]: 0.130%
- Analyte DHA, % of administered dose: retina-right [2, 5]: 0.110%
- Analyte DHA, % of administered dose: superior rectus muscle-left [2, 5]: 0.043%
- Analyte DHA, % of administered dose: superior rectus muscle-right [2, 5]: 0.005%
- Analyte DHA, Concentration in Tissue: Cerebrospinal fluid [2, 5]: 0 ng/g
- Analyte DHA, Concentration in Tissue: brain-left [2, 5]: 21099.7 ng/g
- Analyte DHA, Concentration in Tissue: brain-right [2, 5]: 21336.3 ng/g
- Analyte DHA, Concentration in Tissue: inferior rectus muscle-left [2, 5]: 3161.1 ng/g
- Analyte DHA, Concentration in Tissue: inferior rectus muscle-right [2, 5]: 1287.8 ng/g
- Analyte DHA, Concentration in Tissue: lateral rectus muscle-left [2, 5]: 1356.3 ng/g
- Analyte DHA, Concentration in Tissue: lateral rectus muscle-right [2, 5]: 1085.6 ng/g
- Analyte DHA, Concentration in Tissue: medial rectus muscle-left [2, 5]: 4874.6 ng/g
- Analyte DHA, Concentration in Tissue: medial rectus muscle-right [2, 5]: 1690.7 ng/g
- Analyte DHA, Concentration in Tissue: optic nerve-left [2, 5]: 8794.6 ng/g
- Analyte DHA, Concentration in Tissue: optic nerve-right [2, 5]: 8839.4 ng/g
- Analyte DHA, Concentration in Tissue: retina-left [2, 5]: 48882.9 ng/g
- Analyte DHA, Concentration in Tissue: retina-right [2, 5]: 41629.4 ng/g
- Analyte DHA, Concentration in Tissue: superior rectus muscle-left [2, 5]: 10400.7 ng/g
- Analyte DHA, Concentration in Tissue: superior rectus muscle-right [2, 5]: 743.6 ng/g
- Analyte DHA-EE, % of administered dose: Cerebrospinal fluid [2, 5]: 0%
- Analyte DHA-EE, % of administered dose: brain-left [2, 5]: 0%
- Analyte DHA-EE, % of administered dose: brain-right [2, 5]: 0%
- Analyte DHA-EE, % of administered dose: inferior rectus muscle-left [2, 5]: 0.02%
- Analyte DHA-EE, % of administered dose: inferior rectus muscle-right [2, 5]: 0%
- Analyte DHA-EE, % of administered dose: lateral rectus muscle-left [2, 5]: 0.003%
- Analyte DHA-EE, % of administered dose: lateral rectus muscle-right [2, 5]: 0%
- Analyte DHA-EE, % of administered dose: medial rectus muscle-left [2, 5]: 0.02%
- Analyte DHA-EE, % of administered dose: medial rectus muscle-right [2, 5]: 0%
- Analyte DHA-EE, % of administered dose: optic nerve-left [2, 5]: 0%
- Analyte DHA-EE, % of administered dose: optic nerve-right [2, 5]: 0%
- Analyte DHA-EE, % of administered dose: retina-left [2, 5]: 0%
- Analyte DHA-EE, % of administered dose: retina-right [2, 5]: 0%
- Analyte DHA-EE, % of administered dose: superior rectus muscle-left [2, 5]: 0.04%
- Analyte DHA-EE, % of administered dose: superior rectus muscle-right [2, 5]: 0%
- Analyte DHA-EE, Concentration in Tissue: Cerebrospinal fluid [2, 5]: 0 ng/g
- Analyte DHA-EE, Concentration in Tissue: brain-left [2, 5]: 0 ng/g
- Analyte DHA-EE, Concentration in Tissue: brain-right [2, 5]: 0 ng/g
- Analyte DHA-EE, Concentration in Tissue: inferior rectus muscle-left [2, 5]: 7444.8 ng/g
- Analyte DHA-EE, Concentration in Tissue: inferior rectus muscle-right [2, 5]: 0 ng/g
- Analyte DHA-EE, Concentration in Tissue: lateral rectus muscle-left [2, 5]: 995.7 ng/g
- Analyte DHA-EE, Concentration in Tissue: lateral rectus muscle-right [2, 5]: 0 ng/g
- Analyte DHA-EE, Concentration in Tissue: medial rectus muscle-left [2, 5]: 7382.3 ng/g
- Analyte DHA-EE, Concentration in Tissue: medial rectus muscle-right [2, 5]: 0 ng/g
- Analyte DHA-EE, Concentration in Tissue: optic nerve-left [2, 5]: 0 ng/g
- Analyte DHA-EE, Concentration in Tissue: retina-left [2, 5]: 0 ng/g
- Analyte DHA-EE, Concentration in Tissue: retina-right [2, 5]: 0 ng/g
- Analyte DHA-EE, Concentration in Tissue: superior rectus muscle-left [2, 5]: 12844.5 ng/g
- Analyte DHA-EE, Concentration in Tissue: superior rectus muscle-right [2, 5]: 0 ng/g
- Average DHA present in the brain [2, 5]: 21218 ng/g
- DHA-EE in ocular muscles of the dosed eye [2, 5]: detectable
- DHA-EE measured in the brain [2, 5]: no DHA-EE was measured in the brain
- Drug Concentration in Plasma, analyte DHA [2, 5]: BLQ
- Drug Concentration in Plasma, analyte DHA-EE [2, 5]: BLQ
